From US12421237B2, “Pesticidally active heterocyclic derivatives with sulfur containing substituents” (SYNGENTA PARTICIPATIONS AG, priority 2016, dated 2025)

Legend:
Type in all cases: in vivo
[1] = system: Bemisia tabaci (Cotton White Fly); test: Bemisia tabaci (Cotton White Fly): Feeding/Contact Activity; conditions: foliar, 144 h, application rate of 200 ppm, cotton leaf discs sprayed, adult white flies, 6 days after incubation
Protocol: Cotton leaf discs were placed on agar in 24-well microtiter plates and sprayed with aqueous test solutions prepared from 10,000 ppm DMSO stock solutions. After drying the leaf discs were infested with adult white flies. The samples were checked for mortality 6 days after incubation.

[2] = system: Diabrotica Balteata (Corn Root Worm); test: Diabrotica balteata (Corn Root Worm) maize sprout spray test; conditions: 96 h, application rate of 200 ppm, maize sprouts sprayed, L2 larvae, 4 days after infestation, read-out: effect in at least one of the two categories (mortality or growth inhibition)
Protocol: Maize sprouts placed onto an agar layer in 24-well microtiter plates were treated with aqueous test solutions prepared from 10,000 ppm DMSO stock solutions by spraying. After drying, the plates were infested with L2 larvae (6 to 10 per well). The samples were assessed for mortality and growth inhibition in comparison to untreated samples 4 days after infestation.

[3] = system: Euschistus heros (Neotropical Brown Stink Bug); test: Euschistus heros (Neotropical Brown Stink Bug) soybean leaf spray test; conditions: 120 h, application rate of 200 ppm, soybean leaves sprayed, N2 nymphs, 5 days after infestation, read-out: effect in at least one of the two categories (mortality or growth inhibition)
Protocol: Soybean leaves on agar in 24-well microtiter plates were sprayed with aqueous test solutions prepared from 10,000 ppm DMSO stock solutions. After drying the leaves were infested with N2 nymphs. The samples were assessed for mortality and growth inhibition in comparison to untreated samples 5 days after infestation.

[4] = system: Frankliniella occidentalis (Western Flower Thrips); test: Frankliniella occidentalis (Western Flower Thrips): Feeding/Contact Activity; conditions: foliar, 168 h, application rate of 200 ppm, sunflower leaf discs sprayed, population of mixed ages, 7 days after infestation
Protocol: Sunflower leaf discs were placed on agar in 24-well microtiter plates and sprayed with aqueous test solutions prepared from 10,000 DMSO stock solutions. After drying the leaf discs were infested with a Frankliniella population of mixed ages. The samples were assessed for mortality 7 days after infestation.

[5] = system: Myzus persicae (Green Peach Aphid); test: Myzus persicae (Green Peach Aphid): Feeding/Contact Activity; conditions: foliar, 144 h, application rate of 200 ppm, sunflower leaf discs sprayed, aphid population of mixed ages, 6 days after infestation
Protocol: Sunflower leaf discs were placed onto agar in a 24-well microtiter plate and sprayed with aqueous test solutions prepared from 10,000 ppm DMSO stock solutions. After drying, the leaf discs were infested with an aphid population of mixed ages. The samples were assessed for mortality 6 days after infestation.

[6] = system: Myzus persicae (Green Peach Aphid); test: Myzus persicae (Green Peach Aphid). Systemic Activity; conditions: 144 h, test rate of 24 ppm, roots of infested pea seedlings in test solution, 6 days
Protocol: Roots of pea seedlings infested with an aphid population of mixed ages were placed directly into aqueous test solutions prepared from 10,000 DMSO stock solutions. The samples were assessed for mortality 6 days after placing seedlings into test solutions.

[7] = system: Plutella xylostella (Diamond Back Moth); test: Plutella xylostella (Diamond Back Moth) artificial diet test; conditions: 120 h, application rate of 200 ppm, L2 larvae, 5 days after infestation, read-out: effect in at least one of the two categories (mortality or growth inhibition)
Protocol: 24-well microtiter plates with artificial diet were treated with aqueous test solutions prepared from 10,000 ppm DMSO stock solutions by pipetting. After drying, the plates were infested with L2 larvae (10 to 15 per well). The samples were assessed for mortality and growth inhibition in comparison to untreated samples 5 days after infestation.

[8] = system: Spodoptera littoralis (Egyptian Cotton Leaf Worm); test: Spodoptera littoralis (Egyptian Cotton Leaf Worm) systemic lettuce test; conditions: 144 h, test rate of 12.5 ppm, compound in agar taken up by lettuce roots, eggs, 6 days after infestation, read-out: effect in at least one of the three categories (mortality, anti-feeding, or growth inhibition)
Excerpt: Test compounds were applied by pipette from 10,000 ppm DMSO stock solutions into 24-well plates and mixed with agar. Lettuce seeds were placed onto the agar and the multi well plate was closed by another plate which contained also agar. After 7 days the compound was absorbed by the roots and the lettuce grew into the lid plate. The lettuce leaves were then cut off into the lid plate. Spodoptera eggs were pipetted through a plastic stencil onto a humid gel blotting paper and the lid plate was closed with it. The samples were assessed for mortality, anti-feedant effect and growth inhibition in comparison to untreated samples 6 days after infestation.

CCS(=O)(=O)c1cc(C2(C#N)CC2)cnc1-c1nc2cc(C(F)(F)F)nnc2n1C [Example H-1, 1-[5-Ethylsulfonyl-6-[7-methyl-3-(trifluoromethyl)imidazo[4,5-c]pyridazin-6-yl]-3-pyridyl]cyclopropanecarbonitrile]
≥ 80%: mortality at 200 ppm [1] | percent effect (mortality or growth inhibition) at 200 ppm [2] | percent effect (mortality or growth inhibition) at 200 ppm [3] | mortality at 200 ppm [4] | mortality at 200 ppm [5] | mortality at 24 ppm [6] | percent effect (mortality or growth inhibition) at 200 ppm [7] | percent effect (mortality, anti-feeding or growth inhibition) at 12.5 ppm [8]

CCSc1cc(C2(C#N)CC2)cnc1-c1nc2cc(C(F)(F)F)nnc2n1C [Example H-2, 1-[5-ethylsulfanyl-6-[7-methyl-3-(trifluoromethyl)imidazo[4,5-c]pyridazin-6-yl]-3-pyridyl]cyclopropanecarbonitrile]
≥ 80%: percent effect (mortality or growth inhibition) at 200 ppm [2] | percent effect (mortality or growth inhibition) at 200 ppm [3] | mortality at 200 ppm [4] | percent effect (mortality or growth inhibition) at 200 ppm [7]
